These results are taken from patent publication US20110053901A1, “ACETYL MIMIC COMPOUNDS FOR THE INHIBITION OF ISOPRENYL-S-CYSTEINYL METHYLTRANSFERASE” (SIGNUM BIOSCIENCES, INC., priority 2008, published 2011).

The inhibition in vivo is the change of the read-out against control, counted positive when it falls. A low value points to a response near the control.

Assay [1] relates to TPA-treated ears of mice. Briefly: Mouse ear model of TPA-induced contact inflammation: edema inhibition (ear thickness). The class given is in vivo. The following applies: topical on TPA-treated mouse ear, 24 hours; for inhibition in vivo at 0.2 mg: dose 0.2 mg/20 μL; for inhibition in vivo at 0.8 mg: dose 0.8 mg/20 μL. The text has this: (§1) G. et al., Anti-inflammatory Drugs, Clin. Pharmacol. Ther. 16, 900-4 (1974); Young et al., Tachyphylaxis in 12-Otetradecanoylphorbolacetate-and Arachidonic Acid-Induced Ear Edema; J. Invest. Dermatol. 80:48-52, (1983); Tramposch et al., In Vivo Models of Inflammation, (Morgan D W, Marshall L A eds), Birkha{umlaut over ( )}user Verlag: Basel, pp 179-204, 1999; and Gordon et al., Topical N-Acetyl-S-Farnesyl-L-Cysteine Inhibits Mouse Skin Inflammation, and Unlike Dexamethasone, Its Effects Are Restricted to the Application Site, J. Invest. Dermatol., 128(3):643-54, 2008 March)]. Moreover, the mouse ear model has been used by various groups to identify and compare members of differing classes of anti-inflammatory agents with multiple mechanisms of action (reviewed in Tramposch et al., 1999, supra).
The protocol for inducing in vivo acute contact inflammation on the ears of live mice has been described elsewhere (reviewed in Tramposch, 1999, supra). In brief, mice were sedated and their ears were treated with 1.2 μg/20 uL TPA (i.e., tetradecanoylphorbol-13-acetate). […] After 24 hours, the mice were sacrificed and edema was measured by taking micrometer readings of each ear. The percent inhibition of edema was determined by taking the average ear thickness of compound-treated ears and dividing it by the average thickness of 12 ears that only received TPA and subtracting that value from 100%. These values were corrected for the thickness of normal, non TPA-treated mouse ears of littermate controls. […] ED50 values were calculated as described in Gordon et al., “Topical N-acetyl-S-farnesyl-L-cysteine Inhibits Mouse Skin Inflammation, and Unlike Dexamethasone, its Effects Are Restricted to the Application Site”, J. Invest. Derm., Vol. 128 pp. 643-654 (2008).

For assay [2], the system named is myeloperoxidase (MPO), neutrophil marker in TPA-treated ears. Briefly: Mouse ear model of TPA-induced contact inflammation: MPO inhibition (dermal neutrophil infiltration). The following applies: topical on TPA-treated mouse ear, 6 mm biopsy punches; for inhibition in vivo at 0.2 mg: dose 0.2 mg/20 μL; for inhibition in vivo at 0.8 mg: dose 0.8 mg/20 μL. The class given is in vivo.
Description: as §1
To assay for inhibition of dermal neutrophil infiltration by S-isoprenyl and S-farnesyl cysteine compounds, a standard method was used (see Bradley et al., 1982, supra; Young et al., 1983, supra; De Young et al, “Edema and Cell Infiltration in the Phorbol Ester-treated Mouse Ear are Temporally Separate and can be Differentially Modulated by Pharmacologic Agents”, Agents Actions, 26(3-4): 335-41 (March 1989); and Rao et al. (1993) Comparative Evaluation of Arachidonic Acid (AA)-and Tetradecanoylphorbol Acetate (TPA)-Induced Dermal Inflammation, Inflammation 17:723-41). Briefly, we homogenized 6 mm biopsy punches taken from both compound-treated ears as well as TPA-treated and non-treated control groups. We quantitated the levels of MPO by a colorimetric reaction that was measured spectrophotometrically. The percent inhibition of neutrophil infiltration by each S-isoprenyl and S-farnesyl cysteine compound was determined by comparing the average MPO levels in the presence and absence of these compounds. The calculation for percent inhibition of MPO was determined similar to that as described for calculating the percent edema inhibition, see the Edema Inhibition protocol, supra. […] Gordon et al., “Topical N-acetyl-S-farnesyl-L-cysteine Inhibits Mouse Skin Inflammation, and Unlike Dexamethasone, its Effects Are Restricted to the Application Site”, J. Invest. Derm., Vol. 128 pp. 643-654 (2008).

In assay [3] the target is membrane-associated isoprenyl-S-cysteinyl methyltransferase (Homo sapiens, UniProt O60725). The following applies: cited from earlier work.
In the next assay the test system is dermal inflammation. The settings on record: mice; cited from earlier work.
Assay [4] concerns TPA-treated ears of mice. Briefly: Mouse ear model of TPA-induced contact inflammation: erythema inhibition (Δa* redness, chroma meter). The class given is in vivo. The following applies: dose 0.2 mg/20 μL, topical on TPA-treated mouse ear, 24 hours post treatment.
Description: as §1
Another well documented biomarker of skin inflammation is skin redness, termed erythema, which is caused by capillary congestion and dilation in response to various chemical and environmental insults (see Denig, N. I. et al., Irritant Contact Dermatitis. Clues to Causes, Clinical Characteristics, and Control, Postgrad Med., May (1998); 103(5):199-200, 207-8, 212-3). […]

membrane-associated isoprenyl-S-cysteinyl methyltransferase, sequence (O60725 whole entry): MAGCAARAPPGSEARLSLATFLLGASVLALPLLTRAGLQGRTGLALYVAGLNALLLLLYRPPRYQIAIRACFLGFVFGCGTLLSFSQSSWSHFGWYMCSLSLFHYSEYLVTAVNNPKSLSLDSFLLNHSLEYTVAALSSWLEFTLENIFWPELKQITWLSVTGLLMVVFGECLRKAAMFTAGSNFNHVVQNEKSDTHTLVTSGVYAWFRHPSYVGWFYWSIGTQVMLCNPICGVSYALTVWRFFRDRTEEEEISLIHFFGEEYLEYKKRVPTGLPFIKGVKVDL

In the assay on TPA-treated ears of mice [1], `CC(C)=CCC/C(C)=C/CC/C(C)=C/CSC[C@H](Nc1ccnc(N)n1)C(=O)O` [Compound H] showed an inhibition in vivo at 0.2 mg of 39.7 ± 1.67% and an inhibition in vivo at 0.8 mg of 50.1%. Further, in assay [2], the inhibition in vivo at 0.2 mg came out at 63.5 ± 7.03% and the inhibition in vivo at 0.8 mg was 89%.

For the compound `CC(C)=CCC/C(C)=C/CC/C(C)=C/CSC[C@H](Nc1ncccn1)C(=O)O` [Compound J], in the assay with TPA-treated ears of mice [1], the inhibition in vivo at 0.2 mg came out at 1.89 ± 7.75%.

As for `CNC(=S)N[C@@H](CSC/C=C(\C)CC/C=C(\C)CCC=C(C)C)C(=O)O` [Compound A], the inhibition in vivo at 0.2 mg with TPA-treated ears of mice [1] stood at 8.55 ± 3.7%; in assay [2], 8.8 ± 6.29%.

Regarding `CC(=O)N[C@@H](CSC/C=C(\C)CC/C=C(\C)CCC=C(C)C)C(=O)O` [AFC, N-acetyl-S-farnesyl-L-cysteine], the “inhibition of isoprenyl-S-cysteinyl methyltransferase (mode)” value in assay [3] is listed as “competitive inhibitor”. Also, the “effect on dermal inflammation” value in the assay with dermal inflammation is reported as “effectively reduces dermal inflammation”.

In the case of `CC/N=C(\NCC)N[C@@H](CSC/C=C(\C)CC/C=C(\C)CCC=C(C)C)C(=O)O` [Compound B], the “% Inhibition Erythema” value in the assay with TPA-treated ears of mice [4] was 0.51 ± 10.81 — %.

For `CC(C)=CCC/C(C)=C/CC/C(C)=C/CSC[C@H](NC(=O)N(c1ccccc1)c1ccccc1)C(=O)O` [Compound F], the figures for the inhibition in vivo at 0.8 mg (in the assay with TPA-treated ears of mice [1]; in assay [2]) were 4.66% and 79.5%, respectively.

Turning to `CC(C)=CCC/C(C)=C/CC/C(C)=C/CSC[C@H](NC(=O)Nc1ccccc1)C(=O)O` [Compound E], the inhibition in vivo at 0.8 mg came out at 18.2% with TPA-treated ears of mice [1] and 75.4% in assay [2].

For the compound `CC(C)=CCC/C(C)=C/CC/C(C)=C/CSC[C@H](NC(=O)N1CCCCC1)C(=O)O` [Compound D], the inhibition in vivo at 0.8 mg turned out to be 32.6% with TPA-treated ears of mice [1] and 83.7% in assay [2].

Consider `CC(C)=CCC/C(C)=C/CC/C(C)=C/CSC[C@H](NC(=O)N1CCOCC1)C(=O)O` [Compound C], for which the results for the inhibition in vivo at 0.8 mg (with TPA-treated ears of mice [1]; in assay [2]) were 34.1% and 61.8%, respectively.

For `CC(C)=CCC/C(C)=C/CC/C(C)=C/CSC[C@H](NC(=O)N1CCNC1=O)C(=O)O` [Compound G], the inhibition in vivo at 0.8 mg in the assay on TPA-treated ears of mice [1] is 13.4%; in assay [2], 58%.

Turning to `CC(C)=CCC/C(C)=C/CC/C(C)=C/CSC[C@H](Nc1ccnc(NN)n1)C(=O)O` [Compound I], the results for the inhibition in vivo at 0.2 mg (in the assay with TPA-treated ears of mice [1]; in assay [2]) were 24.7 ± 16.5% and 23.1 ± 6.79%, respectively.
